Earlier results, collected in US6001802A, “Platelet-derived growth factor analogues” (Trigen Limited, priority 1993, dated 1999).
Where no end group is shown, it is not given here.

How the values were obtained:
PDGF β-receptors = PDGF β-receptors (Homo sapiens, UniProt P09619); details: reference [6]
[1] = tested on: smooth muscle cells of injured arteries; details: administration of PDGF, rat angioplasty model [19]

Sequence of PDGF β-receptors (P09619 33-1106): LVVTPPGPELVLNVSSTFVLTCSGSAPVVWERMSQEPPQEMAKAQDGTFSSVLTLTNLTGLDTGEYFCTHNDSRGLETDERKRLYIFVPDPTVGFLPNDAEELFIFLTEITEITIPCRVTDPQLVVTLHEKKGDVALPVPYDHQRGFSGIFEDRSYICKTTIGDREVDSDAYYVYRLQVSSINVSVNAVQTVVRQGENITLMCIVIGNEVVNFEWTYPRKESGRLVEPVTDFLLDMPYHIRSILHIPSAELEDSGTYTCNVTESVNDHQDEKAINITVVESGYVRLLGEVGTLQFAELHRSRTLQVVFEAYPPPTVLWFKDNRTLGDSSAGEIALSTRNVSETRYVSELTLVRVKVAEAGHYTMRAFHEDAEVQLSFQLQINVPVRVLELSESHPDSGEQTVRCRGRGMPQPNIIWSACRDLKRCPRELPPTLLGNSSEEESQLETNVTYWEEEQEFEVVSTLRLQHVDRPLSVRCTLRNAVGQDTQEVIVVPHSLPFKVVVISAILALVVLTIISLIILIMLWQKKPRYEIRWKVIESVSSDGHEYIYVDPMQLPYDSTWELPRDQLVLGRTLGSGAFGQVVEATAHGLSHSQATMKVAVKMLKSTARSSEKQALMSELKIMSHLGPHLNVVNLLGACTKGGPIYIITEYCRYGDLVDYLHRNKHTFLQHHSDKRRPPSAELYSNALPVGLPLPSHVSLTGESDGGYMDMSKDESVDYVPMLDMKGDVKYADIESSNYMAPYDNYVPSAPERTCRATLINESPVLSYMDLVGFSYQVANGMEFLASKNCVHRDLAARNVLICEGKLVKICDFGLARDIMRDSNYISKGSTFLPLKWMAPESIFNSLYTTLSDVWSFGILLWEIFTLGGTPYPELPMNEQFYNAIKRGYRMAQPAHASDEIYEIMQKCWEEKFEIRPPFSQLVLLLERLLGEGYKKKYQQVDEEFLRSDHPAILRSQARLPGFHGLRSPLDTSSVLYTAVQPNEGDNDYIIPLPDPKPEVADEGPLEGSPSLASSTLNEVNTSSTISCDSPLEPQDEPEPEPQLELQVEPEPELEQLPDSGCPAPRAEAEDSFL

Row | Substance | antagonist for PDGF (PDGF β-receptors) | SMC migration from the media to the intima [1] | SMC proliferation in the media [1]
1 | ANFLVW - - - EIVRKKP (also: N-terminal ANFLVW segment joined by an unspecified link (- - -)) [literature peptide of PDGF-B chain residues 35-40 and 78-83 [6]] | effective as an antagonist for PDGF |  | 
2 | PDGF: 28-31 KD dimeric, highly basic glycoprotein, potent mitogen for connective tissue cells |  | 20 fold | 2-3 fold
